Reference: ChEMBL document CHEMBL3217756, “Biological and computational evaluation of an oxadiazole derivative (MD77) as a new lead for direct STAT3 inhibitors” (Medchemcomm, 2012)

Columns and labels:
KM12 = experiment: Cytotoxicity against human KM12 cells after 48 hrs by sulforhodamine B assay; type: functional; details: KM12, 48 h
HL-60(TB) = experiment: Cytotoxicity against human HL-60(TB) cells after 48 hrs by sulforhodamine B assay; type: functional; details: HL-60, 48 h
[1] = Cytotoxicity against human NCI-ADR-RES cells after 48 hrs by sulforhodamine B assay; type: functional
HCC 2998 = experiment: Cytotoxicity against human HCC2998 cells after 48 hrs by sulforhodamine B assay; type: functional; details: HCC 2998, 48 h
NCI-H23 = experiment: Cytotoxicity against human NCI-H23 cells after 48 hrs by sulforhodamine B assay; type: functional; details: NCI-H23, 48 h
U-251 = experiment: Cytotoxicity against human U251 cells after 48 hrs by sulforhodamine B assay; type: functional; details: U-251, 48 h
NCI-H226 = experiment: Cytotoxicity against human NCI-H226 cells after 48 hrs by sulforhodamine B assay; type: functional; details: NCI-H226, 48 h
[2] = Cytotoxicity against human UO31 cells after 48 hrs by sulforhodamine B assay; type: functional; details: UO-31, 48 h
DU-145 = experiment: Cytotoxicity against human DU145 cells after 48 hrs by sulforhodamine B assay; type: functional; details: DU-145, 48 h
[3] = molecular target: Growth factor receptor-bound protein 2 (Homo sapiens, UniProt P62993); experiment: Inhibition of SH2 domain of GRB2 (unknown origin) using FITC-PSpYVNVQN as substrate at 30 uM preincubated for 15 mins before substrate addition measured after 90 mins by alphascreen based assay
[4] = read-out: LC50 (the source's name)
[5] = read-out: pLC50 (the source's name) (converted)

Chain of Growth factor receptor-bound protein 2 (P62993 whole entry, looked up, the tested form may be a part): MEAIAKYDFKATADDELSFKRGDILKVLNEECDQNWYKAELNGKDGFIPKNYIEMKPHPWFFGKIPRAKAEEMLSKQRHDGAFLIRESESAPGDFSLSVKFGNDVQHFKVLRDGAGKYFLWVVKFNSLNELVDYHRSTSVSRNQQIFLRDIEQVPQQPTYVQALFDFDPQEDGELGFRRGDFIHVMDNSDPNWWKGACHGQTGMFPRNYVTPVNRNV

O=C(Nc1nonc1-c1ccc(Cl)cc1)c1ccc(C(F)(F)F)cc1
GI50 (KM12; read-out: GI50): 3.06 µM
CC50 (KM12; [4]): > 100 µM
TGI (KM12; read-out: TGI): > 100 µM
GI50 (KM12; read-out: pGI50 (converted)): 3.09 µM
CC50 (KM12; [5]): > 100 µM
TGI (KM12; read-out: pTGI): > 100 µM
GI50 (HL-60(TB); read-out: GI50): 0.546 µM
CC50 (HL-60(TB); [4]): > 100 µM
TGI (HL-60(TB); read-out: TGI): 2.85 µM
GI50 (HL-60(TB); read-out: pGI50 (converted)): 0.55 µM
CC50 (HL-60(TB); [5]): > 100 µM
TGI (HL-60(TB); read-out: pTGI (converted)): 2.88 µM
GI50 ([1]; read-out: GI50): 2.66 µM
CC50 [1, 4]: > 100 µM
GI50 ([1]; read-out: pGI50 (converted)): 2.63 µM
CC50 [1, 5]: > 100 µM
GI50 (HCC 2998; read-out: GI50): 3.63 µM
CC50 (HCC 2998; [4]): > 100 µM
TGI (HCC 2998; read-out: TGI): > 100 µM
GI50 (HCC 2998; read-out: pGI50 (converted)): 3.63 µM
CC50 (HCC 2998; [5]): > 100 µM
TGI (HCC 2998; read-out: pTGI): > 100 µM
GI50 (NCI-H23; read-out: GI50): 1.89 µM
CC50 (NCI-H23; [4]): > 100 µM
TGI (NCI-H23; read-out: TGI): 7.94 µM
GI50 (NCI-H23; read-out: pGI50 (converted)): 1.91 µM
CC50 (NCI-H23; [5]): > 100 µM
TGI (NCI-H23; read-out: pTGI (converted)): 7.94 µM
GI50 (U-251; read-out: GI50): 2.19 µM
LC50 (U-251; read-out: LC50): > 100 µM
TGI (U-251; read-out: TGI): > 100 µM
GI50 (U-251; read-out: pGI50 (converted)): 2.19 µM
LC50 (U-251; read-out: pLC50 (converted)): > 100 µM
TGI (U-251; read-out: pTGI): > 100 µM
GI50 (NCI-H226; read-out: GI50): 2.48 µM
CC50 (NCI-H226; [4]): > 100 µM
TGI (NCI-H226; read-out: TGI): 7.85 µM
GI50 (NCI-H226; read-out: pGI50 (converted)): 2.45 µM
CC50 (NCI-H226; [5]): > 100 µM
TGI (NCI-H226; read-out: pTGI (converted)): 7.76 µM
GI50 ([2]; read-out: GI50): 2.37 µM
CC50 [2, 4]: > 100 µM
TGI ([2]; read-out: TGI): > 100 µM
GI50 ([2]; read-out: pGI50 (converted)): 2.34 µM
CC50 [2, 5]: > 100 µM
TGI ([2]; read-out: pTGI): > 100 µM
GI50 (DU-145; read-out: GI50): 3.48 µM
CC50 (DU-145; [4]): > 100 µM
TGI (DU-145; read-out: TGI): > 100 µM
GI50 (DU-145; read-out: pGI50 (converted)): 3.47 µM
CC50 (DU-145; [5]): > 100 µM
TGI (DU-145; read-out: pTGI): > 100 µM
inhibition [3]: 10.5%
